Results on five compounds are retold here after patent EP0418099B1, “Process of preparation of 10, 11-Methylenedioxy-20 (RS) camptothecin and 10, 11-methylenedioxy-20 (S) - camptothecin analog” (RESEARCH TRIANGLE INSTITUTE, priority 1989, dated 1991).

The conditions of assay [1]: Wani et al., J. Med. Chem.; cited from earlier work.
The subject of assay [2] is human colorectal tumors. The assay is described as follows: Human colon tumor histioculture, inhibition of cell proliferation. The format is cell-based. Particulars: concentration inhibiting by 50% the incorporation of [H]thymidine into DNA, tumors exposed to compounds for 24 hours, then thymidine for 3 days. An excerpt: As used herein, the term "cancer" is synonymous with the terms "malignant tumor" and more generally "tumor". […] See H.L. Davis, Chemotherapy of Large Bowel Cancer, Cancer (Phila.) 50: 2638-2646 (1982); J.R. Neefe and P.S. Schein, Chapter 43: The Management of Disseminated Large-Bowel Cancer in Principals of Cancer Treatment, page 402, ed. S.K. Carter, E. Glatstein and R.B. Livingston, McGraw-Hill Co., 1982; K. Mekhail-Ishak, Cancer Research, 49: 4866-4869 (1989) and P.J. Ferguson and Y.C. Cheng, Cancer Research, 49: 1148-1153 (1989).
Inhibition of tumor cell proliferation was performed in vitro on human colorectal tumors obtained from surgery or biopsy, as described by Vescio et al (Proc. Nat'l. Acad. Sci. USA 84:5029-5033, 1987) with the following modifications: Tumors were cultured 1 day prior to drug addition; tumors were exposed to compounds for 24 hours, washed, and then exposed to ^3[H]thymidine for 3 days.

The target of assay [3] is topoisomerase I (Bos taurus, UniProt A0AAA9TV68). Conditions: relative to camptothecin; cited from earlier work.
In assay [4] the test system is 9KB. The assay is described as follows: In vitro cytotoxicity test 9KB. In kind it is cell-based. Particulars: 9KB test, compared with camptothecin. An excerpt:
(§1) 10,11-MDO-20(S)-CPT is also very potent in the L-1210 leukemia in vivo life prolongation assay. The synthesis of […] is known and described in Wani et al, J. Med. Chem., 29 (11), 2358-2363 (1986) and in U.S. 4,894,456.

Assay [5] deals with 9PS. Nature of the assay: In vitro cytotoxicity test 9PS. In kind it is cell-based. Particulars: 9PS test, compared with camptothecin.
Source text: as §1

Assay [6] relates to L-1210 leukemia. Nature of the assay: L-1210 leukemia in vivo life prolongation assay. The arrangement: species or system mice.
Source text: as §1

Converted amounts (≈) assume the structure as drawn. Where a name gives a salt, the structure may show the parent alone.

topoisomerase I, sequence (A0AAA9TV68 entry or part of it): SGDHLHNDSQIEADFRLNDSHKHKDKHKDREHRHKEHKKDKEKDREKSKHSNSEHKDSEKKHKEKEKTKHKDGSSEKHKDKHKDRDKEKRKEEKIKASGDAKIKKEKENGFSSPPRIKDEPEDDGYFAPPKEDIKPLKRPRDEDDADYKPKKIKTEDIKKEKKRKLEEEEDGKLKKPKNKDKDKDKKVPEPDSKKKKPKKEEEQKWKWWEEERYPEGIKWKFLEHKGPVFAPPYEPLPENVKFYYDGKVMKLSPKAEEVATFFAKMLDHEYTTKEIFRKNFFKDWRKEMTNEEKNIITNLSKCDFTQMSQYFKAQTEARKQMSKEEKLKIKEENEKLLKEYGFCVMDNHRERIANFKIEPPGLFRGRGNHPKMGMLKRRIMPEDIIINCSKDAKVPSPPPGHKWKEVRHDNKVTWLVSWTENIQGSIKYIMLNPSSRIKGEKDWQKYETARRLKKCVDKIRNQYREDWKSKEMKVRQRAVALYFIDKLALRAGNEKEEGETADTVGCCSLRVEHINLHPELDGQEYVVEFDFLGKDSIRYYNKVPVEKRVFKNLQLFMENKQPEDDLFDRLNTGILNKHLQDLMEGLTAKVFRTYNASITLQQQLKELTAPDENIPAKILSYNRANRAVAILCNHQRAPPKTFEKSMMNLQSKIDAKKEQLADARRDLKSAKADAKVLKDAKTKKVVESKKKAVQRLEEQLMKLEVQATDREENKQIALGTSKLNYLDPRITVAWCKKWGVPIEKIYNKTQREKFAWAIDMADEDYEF

As to `CCC1(O)C(=O)OCc2c1cc1n(c2=O)Cc2cc3cc(OC)c(OC)cc3nc2-1` (racemic) [10,11-dimethoxy-20(RS)-CPT], the activity result in assay [1] was “totally inactive”.

As for `CCC1(O)C(=O)OCc2c1cc1n(c2=O)Cc2cc3cc4c(cc3nc2-1)OCO4` (racemic) [Compound 3, 10,11-MDO-20(RS)-CPT], in assay [2], the IC50 (in general, the point on the concentration scale where inhibition reaches its midpoint) is around 5 ng/mL (≈ 0.0127 µM). In addition, the “potency in the inhibition of topoisomerase I” value in assay [3] is recorded as “three to five times the potency of camptothecin”. Turning to `CCC1(O)C(=O)OCc2c1cc1n(c2=O)Cc2cc3c(N)c4c(cc3nc2-1)OCO4` (racemic) [Compound 4, 9-AMINO-10,11-MDO-20(RS)-CPT], the IC50 in assay [2] is around 5 ng/mL (≈ 0.0123 µM). As to `CCC(O)(C(=O)O)c1cc2n(c(=O)c1CO)Cc1cc3cc4c(cc3nc1-2)OCO4` (racemic) [Compound 8, 10,11-MDO-20(RS)-CPT, Na^+ SALT], the IC50 in assay [2] is around 10 ng/mL. On to `CC[C@@]1(O)C(=O)OCc2c1cc1n(c2=O)Cc2cc3cc4c(cc3nc2-1)OCO4` [Compound 2, 10,11-MDO-20(S)-CPT], for which the ED50 entry in assay [4] and in assay [5] was “equal to or more potent than camptothecin itself” in each case. In addition, the life prolongation result in assay [6] was “very potent”.
